# According to PMC2940852 (Biochemical pharmacology, 2010):
# Columns and labels:
# [1] = tested on: dually-perfused human placental lobule; conditions: human placenta; cited from earlier work
# BCRP [2] = target: T1, BCRP (Homo sapiens, UniProt Q9UNQ0); assay: Stimulation of BCRP ATPase activity; format: biochemical; conditions: insect cell membranes transfected with human BCRP
# T1 sequence (Q9UNQ0 1-655): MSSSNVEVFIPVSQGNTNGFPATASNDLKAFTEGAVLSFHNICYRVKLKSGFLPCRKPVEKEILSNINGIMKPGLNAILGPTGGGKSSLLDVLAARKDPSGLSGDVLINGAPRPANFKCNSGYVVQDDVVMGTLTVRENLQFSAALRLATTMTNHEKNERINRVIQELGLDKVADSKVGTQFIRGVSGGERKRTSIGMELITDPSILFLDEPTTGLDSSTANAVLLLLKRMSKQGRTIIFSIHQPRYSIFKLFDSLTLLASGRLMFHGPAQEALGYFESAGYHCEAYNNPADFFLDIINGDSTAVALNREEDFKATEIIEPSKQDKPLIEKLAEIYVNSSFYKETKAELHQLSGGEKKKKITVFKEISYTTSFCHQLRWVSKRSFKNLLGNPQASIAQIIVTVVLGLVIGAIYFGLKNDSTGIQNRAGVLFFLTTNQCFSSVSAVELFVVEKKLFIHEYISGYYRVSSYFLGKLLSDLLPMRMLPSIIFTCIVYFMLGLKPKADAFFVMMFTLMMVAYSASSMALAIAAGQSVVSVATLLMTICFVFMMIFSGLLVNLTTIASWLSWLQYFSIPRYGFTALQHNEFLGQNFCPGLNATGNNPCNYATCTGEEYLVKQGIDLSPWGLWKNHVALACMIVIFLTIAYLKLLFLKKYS
# P-gp [3] = target: T2, P-gp (Homo sapiens, UniProt P08183); assay: Stimulation of P-gp ATPase activity; format: biochemical; conditions: insect cell membranes transfected with human P-gp
# T2 sequence (P08183 whole entry): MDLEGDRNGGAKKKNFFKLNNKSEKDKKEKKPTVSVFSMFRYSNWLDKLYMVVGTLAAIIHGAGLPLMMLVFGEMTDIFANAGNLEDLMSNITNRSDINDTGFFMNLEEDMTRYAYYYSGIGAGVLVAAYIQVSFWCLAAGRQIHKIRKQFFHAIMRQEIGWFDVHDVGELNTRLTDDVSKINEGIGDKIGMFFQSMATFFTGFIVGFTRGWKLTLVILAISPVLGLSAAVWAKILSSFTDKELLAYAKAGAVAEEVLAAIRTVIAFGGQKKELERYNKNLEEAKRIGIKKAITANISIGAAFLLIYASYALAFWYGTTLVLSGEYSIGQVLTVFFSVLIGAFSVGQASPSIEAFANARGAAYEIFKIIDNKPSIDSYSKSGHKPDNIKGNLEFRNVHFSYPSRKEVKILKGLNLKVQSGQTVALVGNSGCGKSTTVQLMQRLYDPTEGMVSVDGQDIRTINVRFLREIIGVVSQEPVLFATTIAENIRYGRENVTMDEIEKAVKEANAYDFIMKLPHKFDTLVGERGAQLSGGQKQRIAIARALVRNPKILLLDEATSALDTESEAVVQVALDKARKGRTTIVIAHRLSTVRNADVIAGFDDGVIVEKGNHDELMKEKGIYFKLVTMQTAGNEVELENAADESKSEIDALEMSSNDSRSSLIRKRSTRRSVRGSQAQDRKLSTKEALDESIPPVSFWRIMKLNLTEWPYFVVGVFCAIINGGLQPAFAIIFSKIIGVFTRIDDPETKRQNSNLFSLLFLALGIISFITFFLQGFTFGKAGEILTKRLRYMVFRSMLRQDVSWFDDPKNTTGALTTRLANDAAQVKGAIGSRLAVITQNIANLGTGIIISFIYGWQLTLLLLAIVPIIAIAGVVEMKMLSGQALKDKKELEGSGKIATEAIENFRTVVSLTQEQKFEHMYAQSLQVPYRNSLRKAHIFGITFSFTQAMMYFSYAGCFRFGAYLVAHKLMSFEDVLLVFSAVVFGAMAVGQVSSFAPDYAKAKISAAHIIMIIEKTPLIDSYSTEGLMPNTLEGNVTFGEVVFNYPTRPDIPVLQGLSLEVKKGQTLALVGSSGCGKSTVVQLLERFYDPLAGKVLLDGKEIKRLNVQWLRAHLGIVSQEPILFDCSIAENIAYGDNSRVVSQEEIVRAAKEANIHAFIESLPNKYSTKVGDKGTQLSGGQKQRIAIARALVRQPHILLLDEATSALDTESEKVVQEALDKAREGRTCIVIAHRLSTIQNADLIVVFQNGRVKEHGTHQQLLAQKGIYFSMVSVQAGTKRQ
# P-gp [4] = target: T2, P-gp; conditions: human placenta brush border membrane IOVs
# placental tissue [5] = assay: Placental viability and functional parameters during perfusion; set-up: species or system human; conditions: OH-bupropion 470 ng/ml, 4 hours, compared with control placentas
# BCRP [6] = target: T1, BCRP; conditions: human placenta brush border membrane IOVs
# placental tissue [7] = assay: Metabolism by placental tissue during perfusion; format: in vitro ADME, human; conditions: 4 hours of perfusion; maternal and fetal perfusate and placental tissue
# [8] = tested on: dually-perfused human placental lobule; assay: Transplacental transfer, dual perfusion of human placental lobule; format: in vitro ADME; conditions: 4 hours perfusion, closed-closed
smiles,measurement,setting,value
Cc1cc(=O)n(-c2ccccc2)n1C [antipyrine],Placental transfer (freely-diffusible compounds),[1],30–40%
CN1CCC[C@H]1c1cccnc1 [nicotine],Placental transfer (freely-diffusible compounds),[1],30–40%
CC(NC(C)(C)C)C(=O)c1cccc(Cl)c1 (stereo not shown) [bupropion],Vmax of stimulation of ATPase activity by BCRP,BCRP [2],6 ± 0.8 nmoles Pi/mg protein*min
same,Vmax of stimulation of ATPase activity by P-gp,P-gp [3],9.5 ± 1.6 nmoles Pi/mg protein*min
"C[C@H]1NC(C)(C)CO[C@]1(O)c1cccc(Cl)c1 [OH-bupropion, hydroxybupropion]",Transported substrate of P-gp,P-gp [4],not a transported substrate
same,Placental viability and functional parameters during perfusion,placental tissue [5],unchanged
same,Transported substrate of BCRP,BCRP [6],not a transported substrate
same,Biotransformation by placental enzymes during perfusion,placental tissue [7],without undergoing biotransformation
same,Fetal circuit concentration as % of initial concentration in maternal circuit,[8],32 ± 3%
same,Concentration in the fetal circuit at the end of the experimental period,[8]; initial maternal concentration 470 ± 17 ng/ml,151 ± 13 ng/mL
